The target in series [1] is T1, human melatonin 2 receptors (human MT2 receptors) (Homo sapiens, UniProt P49286).
T1 construct: expressed in transfected cells; membrane fraction used
T1 sequence (P49286 1-362): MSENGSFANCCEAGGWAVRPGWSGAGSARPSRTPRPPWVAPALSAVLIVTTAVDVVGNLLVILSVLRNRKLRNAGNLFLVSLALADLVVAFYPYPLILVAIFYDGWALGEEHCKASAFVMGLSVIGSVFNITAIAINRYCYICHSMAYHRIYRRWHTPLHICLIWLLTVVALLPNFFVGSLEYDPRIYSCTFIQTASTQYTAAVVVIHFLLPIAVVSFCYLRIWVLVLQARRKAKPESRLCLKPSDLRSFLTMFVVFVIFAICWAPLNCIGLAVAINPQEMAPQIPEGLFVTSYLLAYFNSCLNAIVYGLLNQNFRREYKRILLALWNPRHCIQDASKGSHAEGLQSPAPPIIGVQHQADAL
The experiment in a line: Melatonin receptor binding inhibitory test (2-[125I] Iodomelatonin), MT2. To be noted: membrane fraction of CHO-hMT2 cells, 25° C. for 2.5 hr. On the procedure:
(§1) Melatonin receptor binding inhibitory test
(2) Preparation of CHO-hMT2 Cells Expressing Human Melatonin 2 Receptors
A cDNA fragment (SEQ ID NO: 2) encoding full-length of human melatonin 2 receptors (human MT2 receptors) was incorporated into expression vector pCMV-Script (Stratagene, #212220) to give the plasmid that was pCMV-human MT2 receptors expression vector for animal cell expression. CHO-K1 cells (ATCC, #CCL-61) were plated at the concentration of 1.5×10^5 cells/cm^2 in a 6 well plate (ASAHI TECHNO GLASS), and cultured under the conditions of 37° C., 5% CO2 for 24 hr. For gene transfection, solution obtained by blending pCMV-human MT2 receptors expression vector (1.9 μg), Lipofectamine Transfection Reagent (Invitrogen, #18324-012) (11.3 μL) and Minimum Essential Medium Eagle (MEM) medium (Sigma, M8042) (93.8 μL), and reacting at room temperature for 20 min was added to the cells per one well. The transfected cells were cultured in MEM medium containing 10% FBS (Life Technology) and 300 μg/mL Geneticin (GIBCO, #10131), and the cell line that stably expressed the plasmid gene was selected. By a receptor binding assay using 2-[^125I] Iodomelatonin, CHO-hMT2 cell line showing specific binding of 2-[^125I] Iodomelatonin was selected from the obtained clones.
(§2) (3) Preparation of Cellular Membrane Fraction of CHO Cell (CHO-hMelR7 and CHO-hMT2) Stably Expressing Human MT1 and MT2 Receptors
(§3) CHO-hMelR7 and CHO-hMT2 cells were plated using Cellfactory (Nunc, #170009) under the conditions of 1×10^8 cells/2000 mL/flask. The cells were grown to confluent, and recovered by the following method. As the medium for CHO-hMelR7 and CHO-hMT2, MEM α containing 10% FBS and penicillin/streptomycin was used. […] of geneticin was added to the medium for CHO-hMT2.
(§4) The medium was discarded, cells were washed twice with 200 mL of EDTA/PBS(−), 200 mL of EDTA/PBS(−) was further added, and the cells were stood still at room temperature for 20 min until they were released. The cells were recovered in four 50 mL tubes (Becton Dickinson, #352070), and centrifuged at 1,500 rpm for 10 min at 4° C. using a low speed cooling centrifuge (Hitachi, CF7D2). The supernatant was discarded, the pellets in the four tubes were suspended in 10 mL of PBS(−), and combined in one tube (Becton Dickinson, #352070). The mixture was further centrifuged at 1,500 rpm for 10 min at 4° C., and the obtained pellets were suspended in 20 mL of ice-cooled homogenizing buffer [10 mM NaHCO3, 5 mM EDTA, Protease inhibitor Complete (Roche), pH 7.4]. The cell suspension was homogenized 3 times using a polytron homogenizer at 20,000 rpm for 30 sec. The obtained homogenate was centrifuged (2,000 rpm, 10 min, 4° C.) using a low speed cooling centrifuge. The supernatant was recovered in an ultracentrifugation tube and ultracentrifuged (40,000 rpm, 60 min, 4° C.) using an ultracentrifuge (Beckman, L-90K). To the obtained pellets was added a suspending buffer [50 mM Tris-HCl, 1 mM EDTA, Protease inhibitor Complete (Roche), pH 7.4], and the pellets were suspended by pipetting. The protein concentration of this suspension was measured, diluted to 2 mg/mL to give cellular membrane fractions of CHO-hMelR7 and CHO-hMT2 cells. The membrane fractions were dispensed to 1.5 mL tubes (Eppendorf, #0030120.086) by 100 μL, preserved in a freezer (−80° C.) and used for a binding assay. Protein was quantified using BCA protein assay kit (Pierce) with BSA as the standard.
(§5) (4) Preparation of Membrane Fraction Suspension
(§6) Immediately before use, the membrane fractions of CHO-hMelR7 and CHO-hMT2 cells of the above-mentioned (3) were diluted 20-fold with assay buffer (50 mM Tris-HCl, pH 7.7).
(§7) (5) Preparation of 2-[^125I] Iodomelatonin Solution
(§8) 2-[^125I] Iodomelatonin (#NEX236, PerkinElmer) was diluted with the assay buffer to 400 pM for MT1 and 1 nM for MT2.
(§9) The assay buffer (80 μL) of the above-mentioned (4) was added to each well of a 96-well plate (type 3363, Corning). […]

For series [2], the target named is T2, human melatonin 1 receptors (human MT1 receptors) (Homo sapiens, UniProt P48039).
T2 construct: expressed in transfected cells; membrane fraction used
T2 sequence (P48039 whole entry): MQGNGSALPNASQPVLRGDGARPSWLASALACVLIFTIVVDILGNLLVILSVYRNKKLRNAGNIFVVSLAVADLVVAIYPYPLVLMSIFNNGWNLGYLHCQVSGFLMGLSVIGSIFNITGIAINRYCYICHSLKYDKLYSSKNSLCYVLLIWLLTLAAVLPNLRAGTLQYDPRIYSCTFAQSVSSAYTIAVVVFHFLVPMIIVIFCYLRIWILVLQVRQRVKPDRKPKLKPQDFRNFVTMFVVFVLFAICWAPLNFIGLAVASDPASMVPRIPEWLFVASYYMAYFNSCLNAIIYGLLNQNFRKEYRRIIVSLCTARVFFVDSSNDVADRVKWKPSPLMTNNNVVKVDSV
The experiment in a line: Melatonin receptor binding inhibitory test (2-[125I] Iodomelatonin), MT1. The settings on record: membrane fraction of CHO-hMelR7 cells, 25° C. for 2.5 hr. As to the method:
as §1
(1) Preparation of CHO-hMelR7 Cells Expressing Human Melatonin 1 Receptors
A cDNA fragment (SEQ ID NO: 1) encoding full-length of human melatonin 1 receptors (human MT1 receptors) was incorporated into expression vector pAKKO-111H (former name pAKKO1.11H; Biochim Biophys Acta. Vol. 1219(2), pp. 251-259, 1994) to give plasmid pAKKO-hMelR7 for animal cell expression. CHO/dhfr-cells (ATCC, #CRL-9096) were plated at a concentration of 0.3×10^6 cells/dish in a 6 cm culture dish (Becton Dickinson), and cultured under the conditions of 37° C., 5% CO2 for 48 hr. The cells were transfected with pAKKO-hMelR7 plasmid DNA (5 μg) using Cellphect Transfection Kit (Amersham, #27-9268-01). The transfected cells were cultured in Dulbecco's modified Eagle medium (DMEM) (Sigma, #D6046) containing 10% dialyzed FBS (Biowest, #S180D), 1× Non-Essential Amino Acid (Invitrogen, #11140-050) and 50 μg/mL Gentamycin (Invitrogen, #15750-060), and the cell line that stably expressed the plasmid gene was selected. By a receptor binding assay using 2-[^125I] Iodomelatonin, CHO-hMelR7 cell line showing specific binding of 2-[^125I] Iodomelatonin was selected from the obtained clones.
as §2, §3, §4, §5, §6, §7, §8, §9

Molecules are shown by their SMILES.

What is called melting point is the temperature, or range, at which the solid turns liquid. As a reminder, the IC50 is the concentration that gives 50% inhibition. Lower therefore signals inhibition by little substance. The compound `CC(=O)NCCC1CCc2ccc3nn(C)c(C)c3c21` (stereo not drawn) [Example 8, N-[2-(1,2-dimethyl-2,6,7,8-tetrahydrocyclopenta[e]indazol-8-yl)ethyl]acetamide] gave a melting point of 146 to 149 °C. In series [1], the IC50 is ≤ 100 nM. Besides, the IC50 in series [2] was ≤ 100 nM.

Compound `CC(=O)NCCC1CCc2ccn3nccc3c21` (stereo not drawn) [Example 11, N-[2-(8,9-dihydro-7H-cyclopenta[c]pyrazolo[1,5-a]pyridin-9-yl)ethyl]acetamide] gave a melting point of 100 to 101 °C. The IC50 in series [1] was ≤ 100 nM. Further, the IC50 in series [2] was ≤ 100 nM.

In turn, `CCC(=O)NCCC1CCc2ccn3nccc3c21` (stereo not drawn) [Example 12, N-[2-(8,9-dihydro-7H-cyclopenta[c]pyrazolo[1,5-a]pyridin-9-yl)ethyl]propanamide] returned a melting point of 72 to 73 °C. Also, the IC50 in series [1] was ≤ 100 nM. The IC50 in series [2] was ≤ 100 nM.

The compound `CC(=O)NCCC1CCc2ccn3nc(C)c(C)c3c21` (stereo not drawn) [Example 14, N-[2-(1,2-dimethyl-8,9-dihydro-7H-cyclopenta[c]pyrazolo[1,5-a]pyridin-9-yl)ethyl]acetamide] came in with a melting point of 134 to 135 °C. For the same compound, the concentration for half-maximal inhibition (IC50) in series [1] was ≤ 100 nM. Besides, the IC50 in series [2] was ≤ 100 nM.

On to `CC(=O)NCC[C@@H]1CCc2ccc3nn(C)c(F)c3c21` [Example 23, N-{2-[(8S)-1-fluoro-2-methyl-2,6,7,8-tetrahydrocyclopenta[e]indazol-8-yl]ethyl}acetamide], for which the melting point fell in the range of 155 to 156 °C. In addition, the IC50 in series [1] is ≤ 100 nM. In addition, in series [2], the IC50 was ≤ 100 nM.

For `CC(=O)NCC[C@@H]1CCc2ccc3nn(C)c(Cl)c3c21` [Example 24, N-{2-[(8S)-1-chloro-2-methyl-2,6,7,8-tetrahydrocyclopenta[e]indazol-8-yl]ethyl}acetamide], the melting point was 168 to 171 °C. Besides, in series [1], the IC50 was ≤ 100 nM. Besides, the half-maximal inhibitory concentration (IC50) in series [2] was ≤ 100 nM.

In turn, `CC(=O)NCCC1CCc2c(F)cc3nn(C)cc3c21` (stereo not drawn) [Example 28, N-[2-(5-fluoro-2-methyl-2,6,7,8-tetrahydrocyclopenta[e]indazol-8-yl)ethyl]acetamide] came in with a melting point of 116 to 119 °C. For the same compound, the IC50 in series [1] was ≤ 100 nM. Moreover, in series [2], the IC50 was ≤ 100 nM.

Turning to `CCC(=O)NCCC1CCc2c(F)cc3nn(C)cc3c21` (stereo not drawn) [Example 29, N-[2-(5-fluoro-2-methyl-2,6,7,8-tetrahydrocyclopenta[e]indazol-8-yl)ethyl]propanamide], the melting point was 117 to 119 °C. The IC50 in series [1] was ≤ 100 nM. Also, the IC50 in series [2] was ≤ 100 nM.

As for `CC(=O)NCC=C1CCc2c(Cl)cc3nn(C)cc3c21` [Example 30, N-[2-(5-chloro-2-methyl-6,7-dihydrocyclopenta[e]indazol-8(2H)-ylidene)ethyl]acetamide], the melting point was in the range of 177 to 178 °C. In addition, the concentration for half-maximal inhibition (IC50) in series [1] is ≤ 100 nM. For the same compound, the IC50 in series [2] is ≤ 100 nM.

The compound `CC(=O)NCCC1CCc2c(Cl)cc3nn(C)cc3c21` (stereo not drawn) [Example 31, N-[2-(5-chloro-2-methyl-2,6,7,8-tetrahydrocyclopenta[e]indazol-8-yl)ethyl]acetamide] returned a melting point of 143 to 144 °C. Moreover, in series [1], the IC50 is ≤ 100 nM. Further, the IC50 in series [2] was ≤ 100 nM.

The compound `Cc1cc2c3c(ccn2n1)CCC3CCNC(=O)C1CC1` (stereo not drawn) [Example 33, N-[2-(2-methyl-8,9-dihydro-7H-cyclopenta[c]pyrazolo[1,5-a]pyridin-9-yl)ethyl]cyclopropanecarboxamide] came in with a melting point of 112 to 113 °C. Further, the concentration for half-maximal inhibition (IC50) in series [1] is ≤ 100 nM. The half-maximal inhibitory concentration (IC50) in series [2] was ≤ 100 nM.

For the origin of these results see US8247429B2, “Tricyclic compound and pharmaceutical use thereof” (Takeda Pharmaceutical Company Limited, priority 2006, dated 2012).
